Experimental data reported in the supplement of paper PMC10290057.
Where “and” joins values, the source holds several entries; their conditions need not be identical. Equal entries are not always repeated. Structures can show the parent of a compound that is named as a salt.

What was measured:
[1] = tested on: HCT116; test: efficacy (fitted maximal change in viability relative to DMSO control); higher = less cytotoxic (negative = loss of viability); conditions: 48 h
[2] = tested on: HCT116; test: AC50 cell viability (CellTiter-Glo); higher = less potent; conditions: 48 h
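Wherever AC50 cell viability (CellTiter-Glo) is given: HCT116 colorectal carcinoma cells screened at five concentrations per compound, luminescent viability scaled between DMSO wells and empty wells on each plate, curves fitted per compound.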
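Wherever efficacy (fitted maximal change in viability relative to DMSO control) is given: Luminescence-based viability readout, five doses per compound, normalized against on-plate DMSO and empty-well controls, followed by dose-response curve fitting for every drug.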

In the case of COC1=C(OC)C=C2C(=C1)C(=O)N(CCCN3CCOCC3)\C4=C2\C(=O)C5=C4C=C6OCOC6=C5 [Indotecan hydrochloride (LMP-400)], the efficacy [1] is reported as -88.1% and the AC50 cell viability [2] is reported as 2.09 µM.
CC(C)NC[C@@H](C(=O)N1CCN(c2ncnc3c2[C@H](C)C[C@H]3O)CC1)c1ccc(Cl)cc1 [Ipatasertib] gave an efficacy [1] of -96.8% and an AC50 cell viability [2] of 13.2 µM.
In the case of CCC1=C2C=C(OC(=O)N3CCC(CC3)N4CCCCC4)C=CC2=NC\5=C1CN6C(=O)\C7=C(/C=C56)[C@@](O)(CC)C(=O)OC7 [Irinotecan], the efficacy [1] is reported as -80% and the AC50 cell viability [2] is reported as 1.18 µM.
For Clc1ccc(C(Cn2ccnc2)OCc2c(Cl)cccc2Cl)c(Cl)c1 (configuration not stated) [Isoconazole nitrate], the efficacy [1] was -77.2% and the AC50 cell viability [2] was 23.5 µM.
In the case of CC(C)[C@@H](N(CCCN)C(=O)C1=CC=C(C)C=C1)C/2=N/C3=CC(=CC=C3C(=O)N2CC4=CC=CC=C4)Cl [Ispinesib], the efficacy [1] is reported as -94.4% and the AC50 cell viability [2] is reported as 0.0295 µM.
CC(C)(C)C1=CC(=C(NC(=O)C/2=C/NC3=C(C=CC=C3)C2=O)C=C1O)C(C)(C)C [Ivacaftor] was tested, and the efficacy [1] was -108% and the AC50 cell viability [2] was 18.6 µM.
Compound C/C(=C\c1csc(C)n1)[C@@H]1C[C@@H]2O[C@]2(C)CCC[C@H](C)[C@H](O)[C@@H](C)C(=O)C(C)(C)[C@@H](O)CC(=O)N1 [Ixabepilone] has an efficacy [1] of -58.5% and an AC50 cell viability [2] of 0.0833 µM.
CC(C)C[C@H](NC(=O)CNC(=O)c1cc(Cl)ccc1Cl)B1OC(=O)CC(CC(=O)O)(C(=O)O)O1 (some centres not stated) [Ixazomib citrate] was tested, and the efficacy [1] was -93.4% and the AC50 cell viability [2] was 0.148 µM.
Work on CC(C)C[C@H](NC(=O)CNC(=O)c1cc(Cl)ccc1Cl)B(O)O [Ixazomib] yielded an efficacy [1] of -89.3% and an AC50 cell viability [2] of 0.0833 µM.
For N#CC(c1ccnc(NCCc2cccnc2)n1)c1nc2ccccc2s1 (configuration not stated) [JNK Inhibitor V], the efficacy [1] was -92.2% and the AC50 cell viability [2] was 8.33 µM.
CC1=C(C)C2=C(S1)[N]3C(=NN=C3[C@H](CC(=O)OC(C)(C)C)/N=C2/C4=CC=C(Cl)C=C4)C [JQ1] was tested, and the efficacy [1] was -81.9% and the AC50 cell viability [2] was 0.525 µM.
In the case of CCc1ccc(OCc2ccccc2C(=O)Nc2ccc3nc(C)cc(N)c3c2)cc1 [JTC-801], the efficacy [1] is reported as -94.1% and the AC50 cell viability [2] is reported as 3.32 µM.
CC(C)NC(=O)COc1cccc(-c2nc(Nc3ccc4[nH]ncc4c3)c3ccccc3n2)c1 [KD-025] showed an efficacy [1] of -66.8% and an AC50 cell viability [2] of 8.33 µM.
CC(C)CNc1ccnc(NCc2csc(-c3ccccc3)n2)n1 [KHS-101] gave an efficacy [1] of -129% and an AC50 cell viability [2] of 11.8 µM.
In the case of COc1cc2nccc(Oc3ccc(NC(=O)Nc4ccc(F)cc4F)c(F)c3)c2cc1OC [KI-8751], the efficacy [1] is reported as -47.4% and the AC50 cell viability [2] is reported as 2.09 µM.
In the case of COc1ccc([S+](=O)([O-])N(CCO)c2ccccc2CN(C)C/C=C/c2ccc(Cl)cc2)cc1 [KN-93], the efficacy [1] is reported as -93.9% and the AC50 cell viability [2] is reported as 14.8 µM.
O=C(/C=C\n1cnc(-c2cc(C(F)(F)F)cc(C(F)(F)F)c2)n1)N1CC(F)(F)C1 [KPT-276] showed an efficacy [1] of -75.6% and an AC50 cell viability [2] of 0.59 µM.
For Nc1ccc(/C=C/C(=O)NCc2cc3cc(-c4ccc(C(=O)N5CCC(F)(F)CC5)cc4)cc(-c4ccc(F)cc4)c3o2)cn1 [KPT-9274], the efficacy [1] was -91.7% and the AC50 cell viability [2] was 0.59 µM.
Work on NC(CO)(CO)CCc1ccc(Sc2cccc(OCc3ccccc3)c2)cc1Cl [KRP-203] yielded an efficacy [1] of -92.6% and an AC50 cell viability [2] of 7.42 µM.
O=C/1\C=C(/OC(=C1)/C2=C3SC4=C(SC3=CC=C2)C=CC=C4)N5CCOCC5 [KU-0064] showed an efficacy [1] of -77.5% and an AC50 cell viability [2] of 16.6 µM.
Work on O=C(c1ccc(/C=C/c2n[nH]c3ccccc23)cc1)N1CCNCC1 [KW-2449] yielded an efficacy [1] of -96.6% and an AC50 cell viability [2] of 8.33 µM.
Compound CCc1c(O)cc(O)c(C(=O)c2ccc(OCCN3CCOCC3)c(OC)c2)c1CC(=O)N(CCOC)CCOC [KW-2478] has an efficacy [1] of -53.2% and an AC50 cell viability [2] of 0.833 µM.
O=C(Cc1ccc(-c2ccc(OCCN3CCOCC3)cc2)cn1)NCc1ccccc1 [KX-01] gave an efficacy [1] of -59.6% and an AC50 cell viability [2] of 0.0833 µM.
With N[S+](=O)([O-])c1ccc(NC(=S)N2CCN(C/C=C/c3ccccc3)CC2)cc1 [LF3] the efficacy [1] was -42.2% and the AC50 cell viability [2] was 2.95 µM.
Cc1cc(-c2ncc(CC(=O)Nc3ccc(-c4cnccn4)cn3)cc2C)ccn1 [LGK-974] was tested, and the efficacy [1] was -52.5% and the AC50 cell viability [2] was 16.6 µM.
With N[S+](=O)([O-])c1cccc2c1C(=O)c1cccc(O)c1C2=O [LLL-12] the efficacy [1] was -88% and the AC50 cell viability [2] was 0.833 µM.
Work on Cc1cn(CCN2CCN(c3ccccc3-c3cc(C#N)cc(C(=O)NCCCN4CCCC4)c3)CC2)c2ccccc12 [LLY-507] yielded an efficacy [1] of -130% and an AC50 cell viability [2] of 26.3 µM.
COC1=C(OC)C=C\2C(=C1)C(=O)N(CCCNCCO)\C3=C2C(=O)C4=C3C=C5OCOC5=C4 [LMP-744] gave an efficacy [1] of -99.5% and an AC50 cell viability [2] of 4.17 µM.
COc1cc(C(=O)N2CCC(N3CCN(C)CC3)CC2)ccc1Nc1ncc2c(n1)N(C)c1ccccc1C(=O)N2C [LRRK2-IN-1] gave an efficacy [1] of -94.6% and an AC50 cell viability [2] of 6.61 µM.
In the case of Cc1c[nH]c2ncnc(N3CCC(CN)(C(=O)Nc4cccc(OC(=O)N(C)C)c4)CC3)c12 [LX-7101], the efficacy [1] is reported as -68.9% and -70.5% and the AC50 cell viability [2] is reported as 14.8 µM and 11.8 µM.
CC1(N)CCN(c2cccnc2NC(=O)c2nc(-c3ncccc3C(F)(F)F)cnc2N)CC1 [LXS-196] showed an efficacy [1] of -70.1% and an AC50 cell viability [2] of 16.6 µM.
With C[S+](=O)([O-])CCNCc1ccc(-c2ccc3ncnc(Nc4ccc(OCc5cccc(F)c5)c(Cl)c4)c3c2)o1 [Lapatinib] the efficacy [1] was -99.2% and the AC50 cell viability [2] was 16.6 µM.
With CCN(C(=O)C/1=C(O)/C2=C(C=CC=C2Cl)N(C)C1=O)C3=CC=CC=C3 [Laquinimod] the efficacy [1] was -65.8% and the AC50 cell viability [2] was 10.5 µM.
Work on Cc1oncc1C(=O)Nc1ccc(C(F)(F)F)cc1 [Leflunomide] yielded an efficacy [1] of -31.2% and an AC50 cell viability [2] of 3.32 µM.
COc1cc2nccc(Oc3ccc(NC(=O)NC4CC4)c(Cl)c3)c2cc1C(N)=O [Lenvatinib] was tested, and the efficacy [1] was -61.7% and the AC50 cell viability [2] was 26.3 µM.
CCC(=C/[C@H](C)C/C=C/C(C)=C/[C@@H](C)C(=O)[C@@H](C)[C@H](O)[C@@H](C)C/C(C)=C/C(=O)O)/C=C/[C@@H]1OC(=O)C=C[C@@H]1C [Leptomycin B] was tested, and the efficacy [1] was -80.9% and the AC50 cell viability [2] was 0.00372 µM.
C[C@@]12O[C@@H](C[C@]1(O)CO)n1c3ccccc3c3c4c(c5c6ccccc6n2c5c31)CNC4=O [Lestaurtinib] was tested, and the efficacy [1] was -63.8% and the AC50 cell viability [2] was 1.05 µM.
CCC[C@H](Nc1nc(-c2ccc(NC(=O)NCC)c(OC)c2)ncc1C)c1cccnc1 [Lexibulin hydrochloride] gave an efficacy [1] of -73.5% and an AC50 cell viability [2] of 0.0742 µM.
With Cc1ccc(F)c(NC(=O)Nc2ccc(-c3cccc4[nH]nc(N)c34)cc2)c1 [Linifanib] the efficacy [1] was -90.4% and the AC50 cell viability [2] was 9.34 µM.
Work on C[C@]1(O)CC(C1)C2=NC(=C3[N]2C=CN=C3N)C4=CC5=C(C=C4)C=CC(=N5)C6=CC=CC=C6 (configuration not stated) [Linsitinib] yielded an efficacy [1] of -46.3% and an AC50 cell viability [2] of 23.5 µM.
Nc1nc(OCc2cc(Br)cs2)c2[nH]cnc2n1 [Lomeguatrib] gave an efficacy [1] of -56% and an AC50 cell viability [2] of 18.6 µM.
